Measurements published in ChEMBL document CHEMBL1177690, “Target-specific control of lymphoid-specific protein tyrosine phosphatase (Lyp) activity” (Bioorg Med Chem, 2010).

Legend:
[1] = biological target: T1, Tyrosine-protein phosphatase non-receptor type 22 (Homo sapiens) (UniProt Q9Y2R2); experiment: Inhibition of Lyp expressed in Escherichia coli […]
T1 sequence (whole entry): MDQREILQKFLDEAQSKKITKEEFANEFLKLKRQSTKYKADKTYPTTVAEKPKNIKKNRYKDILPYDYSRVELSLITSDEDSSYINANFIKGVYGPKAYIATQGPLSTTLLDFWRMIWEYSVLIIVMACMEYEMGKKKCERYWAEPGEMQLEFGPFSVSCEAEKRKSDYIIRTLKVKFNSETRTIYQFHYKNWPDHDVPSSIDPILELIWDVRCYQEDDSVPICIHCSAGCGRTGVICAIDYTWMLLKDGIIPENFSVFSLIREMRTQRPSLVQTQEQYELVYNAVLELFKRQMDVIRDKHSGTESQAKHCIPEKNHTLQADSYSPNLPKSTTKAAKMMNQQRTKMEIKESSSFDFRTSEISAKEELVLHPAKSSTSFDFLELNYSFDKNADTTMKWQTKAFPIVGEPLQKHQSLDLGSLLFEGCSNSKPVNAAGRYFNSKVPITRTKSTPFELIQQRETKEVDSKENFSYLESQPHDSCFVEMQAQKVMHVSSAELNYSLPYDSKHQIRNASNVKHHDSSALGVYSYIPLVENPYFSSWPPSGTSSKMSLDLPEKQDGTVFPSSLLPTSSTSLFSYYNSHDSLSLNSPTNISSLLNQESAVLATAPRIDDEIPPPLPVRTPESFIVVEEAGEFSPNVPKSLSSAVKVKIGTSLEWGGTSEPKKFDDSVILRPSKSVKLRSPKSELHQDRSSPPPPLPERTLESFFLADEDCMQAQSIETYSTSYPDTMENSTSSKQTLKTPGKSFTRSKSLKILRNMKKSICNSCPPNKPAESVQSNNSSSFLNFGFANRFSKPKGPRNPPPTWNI

[2] = Activity at Lyp CCPGCC mutant expressed in Escherichia coli using pNPP as a substrate […]

With `O=C(O)c1ccccc1-c1c2ccc(=O)c([As]3SCCS3)c-2oc2c([As]3SCCS3)c(O)ccc12` the Activity [1] was “Dose-dependent effect” and the kcat [2] was 0.057 s⁻¹.
